Assay results reported in patent US20070142392A1, “Uses of rifamycins” (ActivBiotics, Inc., priority 2005, published 2007).
Converted amounts (≈) assume the structure as drawn.

Columns and labels:
Type in all cases: cell-based
E. faecalis = assay: MIC values, E. faecalis (Tables 1-4)
S. pneumo. = assay: MIC values, S. pneumo. (Tables 1-4)
S. aureus = assay: MIC values, S. aureus (Tables 1-4)
H. flu = test system: H. flu
E. coli = assay: MIC values, E. coli (Tables 1-4)

| Structure (SMILES) | MIC E. faecalis (E. faecalis) | MIC S. pneumo. (S. pneumo.) | MIC S. aureus (S. aureus) | MIC H. flu (H. flu) | MIC E. coli (E. coli) | MIC F. faecalis (E. faecalis; Table 2) |
| --- | --- | --- | --- | --- | --- | --- |
| COC1C=COC2(C)Oc3c(C)c(O)c4c(=O)c(c5n(C)c6cc(N7CC(C)NC(C)C7)ccc6nc-5c4c3C2=O)NC(=O)C(C)=CC=CC(C)C(O)C(C)C(O)C(C)C(O)C1C (mixture of isomers) [Compound 97] | >8 µg/mL | 2 µg/mL | 1 µg/mL | 4 µg/mL | >8 µg/mL |  |
| COC1C=COC2(C)Oc3c(C)c(O)c4c(=O)c(c5oc6cc(N7CC(C)CC(C)C7)cc(O)c6nc-5c4c3C2=O)NC(=O)C(C)=CC=CC(C)C(O)C(C)C(O)C(C)C(O)C1C (mixture of isomers) [Compound 116] | 1 µg/mL | 0.002 µg/mL | 0.008 µg/mL | 0.12 µg/mL |  |  |
| COC1C=COC2(C)Oc3c(C)c(O)c4c(=O)c(c5oc6cc(N7CC(C)OC(C)C7)cc(O)c6nc-5c4c3C2=O)NC(=O)C(C)=CC=CC(C)C(O)C(C)C(O)C(C)C(O)C1C (mixture of isomers) [Compound 117] | 0.25 µg/mL | 0.002 µg/mL | 0.015 µg/mL | 0.25 µg/mL | 8 µg/mL |  |
| COC1C=COC2(C)Oc3c(C)c(O)c4c(=O)c(c5oc6cc(N7CCC(F)C7)ccc6nc-5c4c3C2=O)NC(=O)C(C)=CC=CC(C)C(O)C(C)C(O)C(C)C(O)C1C (mixture of isomers) [Compound 122] | 0.5 µg/mL | 0.015 µg/mL | 0.03 µg/mL | 0.06 µg/mL | 4 µg/mL |  |
| CCOC(=O)NC1CCN(c2cc(O)c3nc4c5c6c7c(C)c(O)c5c(=O)c(c-4oc3c2)NC(=O)/C(C)=C\C=C\[C@H](C)[C@H](O)[C@@H](C)[C@@H](O)[C@@H](C)[C@H](OC(C)=O)[C@H](C)[C@@H](OC)/C=C/O[C@@](C)(O7)C6=O)CC1 [Compound 1] | 2 µg/mL (≈ 2.06 µM) | 0.00025 µg/mL (≈ 0.000257 µM) | 0.008 µg/mL (≈ 0.00824 µM) | 2 µg/mL (≈ 2.06 µM) | >8 µg/mL |  |
| COC1C=COC2(C)Oc3c(C)c(O)c4c(=O)c(c5oc6cc(N7CC8C(C7)C8NC(=O)OCC[Si](C)(C)C)cc(O)c6nc-5c4c3C2=O)NC(=O)C(C)=CC=CC(C)C(O)C(C)C(O)C(C)C(OC(C)=O)C1C (stereo not drawn) [Compound 2] | >8 µg/mL | 0.03 µg/mL (≈ 0.0288 µM) | 1 µg/mL (≈ 0.96 µM) | >8 µg/mL | >8 µg/mL |  |
| CCOC(=O)NC1CCN(c2cc(O)c3nc4c5c6c7c(C)c(O)c5c(=O)c(c-4oc3c2)NC(=O)/C(C)=C\C=C\[C@H](C)[C@H](O)[C@@H](C)[C@@H](O)[C@@H](C)[C@H](O)[C@H](C)[C@@H](OC)/C=C/O[C@@](C)(O7)C6=O)CC1 [Compound 3] | 0.12 µg/mL (≈ 0.129 µM) | 0.0005 µg/mL (≈ 0.000538 µM) | 0.03 µg/mL (≈ 0.0323 µM) | 0.25 µg/mL (≈ 0.269 µM) | 4 µg/mL (≈ 4.31 µM) |  |
| COC1C=COC2(C)Oc3c(C)c(O)c4c(=O)c(c5oc6cc(N7CC8C(N)C8C7)cc(O)c6nc-5c4c3C2=O)NC(=O)C(C)=CC=CC(C)C(O)C(C)C(O)C(C)C(OC(C)=O)C1C (stereo not drawn) [Compound 4] | 0.5 µg/mL (≈ 0.557 µM) | 0.00025 µg/mL (≈ 0.000279 µM) | 0.03 µg/mL (≈ 0.0334 µM) | 0.25 µg/mL (≈ 0.279 µM) | >8 µg/mL |  |
| COC1C=COC2(C)Oc3c(C)c(O)c4c(=O)c(c5oc6cc(N7CC8CCCNC8C7)cc(O)c6nc-5c4c3C2=O)NC(=O)C(C)=CC=CC(C)C(O)C(C)C(O)C(C)C(OC(C)=O)C1C (stereo not drawn) [Compound 5] | 0.5 µg/mL (≈ 0.541 µM) | 0.00025 µg/mL (≈ 0.00027 µM) | 0.015 µg/mL (≈ 0.0162 µM) | 2 µg/mL (≈ 2.16 µM) | 8 µg/mL (≈ 8.65 µM) |  |
| COC1C=COC2(C)Oc3c(C)c(O)c4c(=O)c(c5oc6cc(N7CC8CCCNC8C7)cc(O)c6nc-5c4c3C2=O)NC(=O)C(C)=CC=CC(C)C(O)C(C)C(O)C(C)C(O)C1C (stereo not drawn) [Compound 7] | 4 µg/mL (≈ 4.53 µM) | 0.004 µg/mL (≈ 0.00453 µM) | 0.12 µg/mL (≈ 0.136 µM) | 4 µg/mL (≈ 4.53 µM) | >8 µg/mL |  |
| CO[C@H]1/C=C/O[C@@]2(C)Oc3c(C)c(O)c4c(=O)c(c5oc6cc(N7CCC(N8CCOCC8)CC7)cc(O)c6nc-5c4c3C2=O)NC(=O)/C(C)=C\C=C\[C@H](C)[C@H](O)[C@@H](C)[C@@H](O)[C@@H](C)[C@H](OC(C)=O)[C@@H]1C [Compound 9] | 2 µg/mL (≈ 2.06 µM) | 0.001 µg/mL (≈ 0.00103 µM) | 0.015 µg/mL (≈ 0.0155 µM) | 2 µg/mL (≈ 2.06 µM) | 8 µg/mL (≈ 8.26 µM) |  |
| CO[C@H]1/C=C/O[C@@]2(C)Oc3c(C)c(O)c4c(=O)c(c5oc6cc(N7CC8CCC(C7)N8)cc(O)c6nc-5c4c3C2=O)NC(=O)/C(C)=C\C=C\[C@H](C)[C@H](O)[C@@H](C)[C@@H](O)[C@@H](C)[C@H](OC(C)=O)[C@@H]1C [Compound 10] | 1 µg/mL (≈ 1.1 µM) | 0.00012 µg/mL (≈ 0.000132 µM) | 0.008 µg/mL (≈ 0.00878 µM) | 2 µg/mL (≈ 2.2 µM) | >8 µg/mL |  |
| CO[C@H]1/C=C/O[C@@]2(C)Oc3c(C)c(O)c4c(=O)c(c5oc6cc(N7CCC(N8CCOCC8)CC7)cc(O)c6nc-5c4c3C2=O)NC(=O)/C(C)=C\C=C\[C@H](C)[C@H](O)[C@@H](C)[C@@H](O)[C@@H](C)[C@H](O)[C@@H]1C [Compound 11] | 0.25 µg/mL (≈ 0.27 µM) | 0.00012 µg/mL (≈ 0.000129 µM) | 0.004 µg/mL (≈ 0.00431 µM) | 1 µg/mL (≈ 1.08 µM) | 4 µg/mL (≈ 4.31 µM) |  |
| COC1C=COC2(C)Oc3c(C)c(O)c4c(=O)c(c5oc6cc(N7CC8CCCNC8C7)cc(O)c6nc-5c4c3C2=O)NC(=O)C(C)=CC=CC(C)C(O)C(C)C(O)C(C)C(OC(C)=O)C1C (stereo not drawn) [Compound 12] | 0.12 µg/mL (≈ 0.13 µM) | 0.00025 µg/mL (≈ 0.00027 µM) | 0.004 µg/mL (≈ 0.00432 µM) | 0.25 µg/mL (≈ 0.27 µM) | 8 µg/mL (≈ 8.65 µM) |  |
| CO[C@H]1/C=C/O[C@@]2(C)Oc3c(C)c(O)c4c(=O)c(c5oc6c7c(cc(O)c6nc-5c4c3C2=O)N(Cc2ccccc2)CCN7Cc2ccccc2)NC(=O)/C(C)=C\C=C\[C@H](C)[C@H](O)[C@@H](C)[C@@H](O)[C@@H](C)[C@H](OC(C)=O)[C@@H]1C [Compound 85] |  |  | 2 µg/mL (≈ 1.93 µM) | >8 µg/mL | >8 µg/mL | 8 µg/mL (≈ 7.71 µM) |
| CO[C@H]1/C=C/O[C@@]2(C)Oc3c(C)c(O)c4c(=O)c(c5oc6cc(N7CCN(c8ccccc8)CC7)cc(O)c6nc-5c4c3C2=O)NC(=O)/C(C)=C\C=C\[C@H](C)[C@H](O)[C@@H](C)[C@@H](O)[C@@H](C)[C@H](O)[C@@H]1C [Compound 102] | 0.06 µg/mL (≈ 0.0653 µM) |  | 0.004 µg/mL (≈ 0.00435 µM) | 0.25 µg/mL (≈ 0.272 µM) | 4 µg/mL (≈ 4.35 µM) |  |
| CO[C@H]1/C=C/O[C@@]2(C)Oc3c(C)c(O)c4c(=O)c(c5oc6c(F)cc(F)cc6nc-5c4c3C2=O)NC(=O)/C(C)=C\C=C\[C@H](C)[C@H](O)[C@@H](C)[C@@H](O)[C@@H](C)[C@H](O)[C@@H]1C [Compound 137] | 1 µg/mL (≈ 1.28 µM) |  | 0.12 µg/mL (≈ 0.154 µM) | 2 µg/mL (≈ 2.57 µM) | >8 µg/mL |  |
